Results published in patent US20080107623A1, “Inhibitors of Hepatitis C Virus” (Bristol-Myers Squibb Company, priority 2006, published 2008).

Assays:
[1] = target: T1, HCV NS3/4A protease complex, BMS strain (UniProt P27958, species not given/STRAIN_BMS); experiment: FRET peptide assay to monitor HCV NS3/4A proteolytic activity (BMS strain); format: biochemical, HCV genotype 1a; settings: NS3/4A BMS strain; read-out: IC50 Activity Range
T1 construct: said of H77 and J4L6S, not expressly of BMS; These are given for the H77 and J4L6S constructs only
Description: HCV NS3 protease complexes, derived from the BMS strain, H77 strain or J4L6S strain, were generated, as described below. These purified recombinant proteins were generated for use in a homogeneous assay (see below) to provide an indication of how effective compounds of the present disclosure would be in inhibiting HCV NS3 proteolytic activity.
Serum from an HCV-infected patient was obtained from Dr. T. Wright, San Francisco Hospital. An engineered full-length cDNA (compliment deoxyribonucleic acid) template of the HCV genome (BMS strain) was constructed from DNA fragments obtained by reverse transcription-PCR (RT-PCR) of serum RNA (ribonucleic acid) and using primers selected on the basis of homology between other genotype 1a strains. From the determination of the entire genome sequence, a genotype 1a was assigned to the HCV isolate according to the classification of Simmonds et al. (See P Simmonds, K A Rose, S Graham, S W Chan, F McOmish, B C Dow, E A Follett, P L Yap and H Marsden, J. Clin. Microbiol., 31(6), 1493-1503 (1993)). […] The infectious clones, H77 (1a genotype) and J4L6S (1b genotype) were obtained from R. Purcell (NIH) and the sequences are published in Genbank (AAB67036, see Yanagi, M., Purcell, R. H., Emerson, S. U. and Bukh, J. Proc. Natl. Acad. Sci. U.S.A. 94(16),8738-8743 (1997); AF054247, see Yanagi, M., St Claire, M., Shapiro, M., Emerson, S. U., Purcell, R. H. and Bukh, J, Virology 244 (1), 161-172. (1998)).
NS3/4A protease complex-containing fractions were pooled and loaded on a desalting column Superdex-S200 pre-equilibrated with buffer D (25 mM HEPES, pH 7.5, 20% glycerol, 300 mM NaCl, 0.2% Triton X-100, 10 mM βME). Sample was loaded at a flow rate of 1 mL/min. NS3/4A protease complex-containing fractions were pooled and concentrated to approximately 0.5 mg/ml. The purity of the NS3/4A protease complexes, derived from the BMS, H77 and J4L6S strains, were judged to be greater than 90% by SDS-PAGE and mass spectrometry analyses. The enzyme was stored at −80° C., thawed on ice and diluted prior to use in assay buffer.
The purpose of this in vitro assay was to measure the inhibition of HCV NS3 protease complexes, derived from the BMS strain, H77 strain or J4L6S strain, as described above, by compounds of the present disclosure. This assay provides an indication of how effective compounds of the present disclosure would be in inhibiting HCV NS3 proteolytic activity.
In order to monitor HCV NS3/4A protease activity, an NS3/4A peptide substrate was used. The substrate was RET SI (Resonance Energy Transfer Depsipeptide Substrate; AnaSpec, Inc. cat #22991) (FRET peptide), described by Taliani et al. in Anal. Biochem. 240(2):60-67 (1996). […] The peptide also contains a fluorescence donor, EDANS, near one end of the peptide and an acceptor, DABCYL, near the other end. The fluorescence of the peptide is quenched by […] resonance energy transfer (RET) between the donor and the acceptor, but as the NS3 protease cleaves the peptide the products are released from RET quenching and the fluorescence of the donor becomes apparent.
The peptide substrate was incubated with one of the three recombinant NS3/4A protease complexes, in the absence or presence of a compound of the present disclosure. The inhibitory effects of a compound was determined by monitoring the formation of fluorescent reaction product in real time using a Cytofluor Series 4000. […]

[2] = system: HCV replicon in HUH-7 cells; experiment: HCV replicon FRET assay; format: cell-based, HCV strain 1b; settings: Hepatitis C virus, Huh-7; HCV replicon; which replicon assay not stated; read-out: EC50 Activity Range
Description: An HCV replicon whole cell system was established as described by Lohmann V, Korner F, Koch J, Herian U, Theilmann L, Bartenschlager R., Science 285(5424):110-3 (1999). This system enabled us to evaluate the effects of our HCV Protease compounds on HCV RNA replication. Briefly, using the HCV strain 1b sequence described in the Lohmann paper (Assession number: AJ238799), an HCV cDNA was synthesized by Operon Technologies, Inc. (Alameda, Calif.), and the full-length replicon was then assembled in plasmid pGem9zf(+) (Promega, Madison, Wis.) using standard molecular biology techniques. The replicon consists of (i) the HCV 5′ UTR fused to the first 12 amino acids of the capsid protein, (ii) the neomycin phosphotransferase gene (neo), (iii) the IRES from encephalomyocarditis virus (EMCV), and (iv) HCV NS3 to NS5B genes and the HCV 3′ UTR. Plasmid DNAs were linearized with ScaI and RNA transcripts were synthesized in vitro using the T7 MegaScript transcription kit (Ambion, Austin, Tex.) according to manufacturer's directions. In vitro transcripts of the cDNA were transfected into the human hepatoma cell line, HUH-7. […] Resulting cell lines were characterized for positive and negative strand RNA production and protein production over time.
The HCV replicon FRET assay was developed to monitor the inhibitory effects of compounds described in the disclosure on HCV viral replication. HUH-7 cells, constitutively expressing the HCV replicon, were grown in Dulbecco's Modified Eagle Media (DMEM) (Gibco-BRL) containing 10% Fetal calf serum (FCS) (Sigma) and 1 mg/ml G418 (Gibco-BRL). Cells were seeded the night before (1.5×10^4 cells/well) in 96-well tissue-culture sterile plates. Compound and no compound controls were prepared in DMEM containing 4% FCS, 1:100 Penicillin/Streptomysin (Gibco-BRL), 1:100 L-glutamine and 5% DMSO in the dilution plate (0.5% DMSO final concentration in the assay). Compound/DMSO mixes were added to the cells and incubated for 4 days at 37° C. After 4 days, cells were first assessed for cytotoxicity using alamar Blue (Trek Diagnotstic Systems) for a CC50 reading. The toxicity of compound (CC50) was determined by adding 1/10th volume of alamar Blue to the media incubating the cells. After 4 hours, the fluorescence signal from each well was read, with an excitation wavelength at 530 nm and an emission wavelength of 580 nm, using the Cytofluor Series 4000 (Perspective Biosystems). Plates were then rinsed thoroughly with Phosphate-Buffered Saline (PBS) (3 times 150 μl). The cells were lysed with 25 μl of a lysis assay reagent containing an HCV protease substrate (5× cell Luciferase cell culture lysis reagent (Promega #E153A) diluted to 1× with distilled water, NaCl added to 150 mM final, the FRET peptide substrate (as described for the enzyme assay above) diluted to 10 μM final from a 2 mM stock in 100% DMSO. […]. The plate was then placed into the Cytofluor 4000 instrument which had been set to 340 nm excitation/490 nm emission, automatic mode for 21 cycles and the plate read in a kinetic mode. EC50 determinations were carried out as described for the IC50 determinations.

T1 sequence (P27958 1027-1657, change not shown, one chain of several): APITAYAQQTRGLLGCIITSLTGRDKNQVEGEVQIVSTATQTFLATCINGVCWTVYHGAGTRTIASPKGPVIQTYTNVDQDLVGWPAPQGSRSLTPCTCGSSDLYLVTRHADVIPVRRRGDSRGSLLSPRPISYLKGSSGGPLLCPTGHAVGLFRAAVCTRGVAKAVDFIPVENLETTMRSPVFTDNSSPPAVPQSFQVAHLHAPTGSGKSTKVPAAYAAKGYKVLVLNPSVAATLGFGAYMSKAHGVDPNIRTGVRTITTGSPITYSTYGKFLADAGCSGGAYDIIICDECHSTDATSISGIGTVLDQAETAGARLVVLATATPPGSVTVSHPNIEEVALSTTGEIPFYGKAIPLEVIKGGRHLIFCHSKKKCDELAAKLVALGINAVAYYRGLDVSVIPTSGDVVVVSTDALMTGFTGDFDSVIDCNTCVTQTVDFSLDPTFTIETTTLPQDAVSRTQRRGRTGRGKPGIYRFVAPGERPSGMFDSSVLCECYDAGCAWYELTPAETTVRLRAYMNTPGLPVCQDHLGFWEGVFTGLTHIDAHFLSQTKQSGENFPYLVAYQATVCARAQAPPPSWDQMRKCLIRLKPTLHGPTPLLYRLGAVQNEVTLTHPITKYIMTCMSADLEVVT

| Structure (SMILES) | IC50 [1] [nM] | EC50 [2] [nM] | melting point [°C] |
| --- | --- | --- | --- |
| CC(C)(C)OC(=O)N[C@H]1CCCOC/C=C\[C@@H]2C[C@@]2(C(=O)NS(=O)(=O)C2CC2)NC(=O)[C@@H]2C[C@@H](OC(C)(C)C)CN2C1=O [Compound 6, (1S,4R,6S,14S,18R,7-cis)-18-tert-butoxy-14-tert-butoxycarbonylamino-4-cyclopropanesulfonylaminocarbonyl-2,15-dioxo-3,16-diaza-10-oxatricyclo[14.3.0.0^4,6]nonadec-7-ene] | 100 to 1000 | > 1000 | – |
| CC(C)(C)OC(=O)N[C@H]1CCCOC/C=C\[C@@H]2C[C@@]2(C(=O)NS(=O)(=O)C2CC2)NC(=O)[C@@H]2C[C@@H](OCc3ccccc3)CN2C1=O [Compound 5, (1S,4R,6S,14S,18R,7-cis)-18-benzyloxy-14-tert-butoxycarbonylamino-4-cyclopropanesulfonylaminocarbonyl-2,15-dioxo-3,16-diaza-10-oxatricyclo[14.3.0.0^4,6]nonadec-7-ene] | < 100 | > 1000 | 147 to 149 |
| CC(C)(C)OC(=O)N[C@H]1CCCCC/C=C\[C@@H]2C[C@@]2(C(=O)NS(=O)(=O)C2CC2)NC(=O)[C@@H]2C[C@@H](Oc3ccccn3)CN2C1=O [Compound 1] | < 100 | 100 to 1000 | – |
| CC(C)(C)OC(=O)N[C@H]1CCCCC/C=C\[C@@H]2C[C@@]2(C(=O)NS(=O)(=O)C2CC2)NC(=O)[C@@H]2C[C@@H](Oc3ccc([N+](=O)[O-])cc3)CN2C1=O [Compound 2] | < 100 | > 1000 | – |
